Holding throughout (type): cell-based, human
For one assay, the system named is HT-29 cells. Kind of assay: Calcium signaling in HT-29 cells (Fluo 4, confocal microscope). The protocol:
HT-29 cells (from ATCC) were grown in DMEM-F12 with 10% bovine calf serum, and were used 24-48 hours after plating. The Ghost (3) cells were obtained from the AIDS Research and Reference Reagent Program, and were grown DMEM with 10% bovine calf serum supplemented with 500 μg/ml G418, 100 μg/ml hygromycin, and 1 μg/ml puromycin.^27 These cells were used 24 to 96 hours after plating.
Calcium studies were done on HT-29 cells and Ghost (3) cells loaded with Fluo 4. The cells were placed in Locke's buffer containing 5 μg/ml Fluo 4 AM ester (Molecular Probes) for 20 to 30 minutes, then in Locke's buffer for an additional 30 minutes before testing. Various concentrations of gp120IIIB (X4 trophic), gp120CM235 (R5 trophic), gp120mN (X4 trophic), gp12093TH975 (nonsyncytium-inducing primary isolate from an asymptomatic subject, trophism undetermined but likely R5), and gp120SF2 (X4R5 trophic), ranging from 10 nM to less than 1 pM, were added in Locke's buffer.^6 The gp120 proteins were obtained from the AIDS Research Reagent Referral Program. Some HT-29 cells were given one of the following pretreatments: 50 μg/ml anti-Bob37 overnight, 1 μg/ml pertussis toxin overnight, or 4.6 μg/ml U73122 for one hour. With the HT-29 cells only, similar tests were also performed with SDF-1, MIP-1α, MIP-1β, and RANTES rather than gp120. The cells were visualized every 4 seconds in a confocal microscope, using 488 nm argon laser excitation and detection filters appropriate for fluorescein-like dyes.
For the first two or three days after plating, gp120 induces an immediate (within 4 seconds) calcium flux in undifferentiated HT-29 cells. The cells had previously been loaded with Fluo-4 AM ester (Molecular Probes, Eugene Oreg.) 5 micrograms/ml in the presence of Pleuronic F-127 0.02% in Locke's buffer for 30 minutes, then incubated at room temperature for an additional 30 minutes. Gp120IIIB was added while the cells were on an inverted confocal microscope using a 488 nm argon laser, with detection filters suitable for fluorescein-like dyes. […]

The test system of assay [1] is microtubules in HT-29 cells. The assay can be described thus: Microtubule staining (acetylated tubulin) in HT-29 cells. The note with it: one hour after gp120 treatment. The protocol: To examine the microtubules, HT-29 cells were treated with 10 nM gp120CM235 or 50 pM gp120IIIB, then fixed one hour later in 4 g/100 ml paraformaldehyde PBS, then stained with mouse anti acetylated tubulin (5 μg/ml, Sigma) by a method similar to that given above. Some cells were pretreated with 50 μg/ml antiBob37 overnight, 1 μg/ml pertussis toxin overnight, or 4.6 μg/ml U73122 for one hour before the gp120 was added. Untreated cells were also stained.
Similarly treated undifferentiated HT-29 cells (except that Fluo-4 was not added) were fixed in paraformaldehyde phosphate buffered saline one hour after gp120 treatment.

For assay [2], the system named is peripheral blood mononuclear cells. Kind of assay: gp120-induced calcium flux in peripheral blood mononuclear cells. The protocol:
Normal human peripheral blood mononuclear cells were isolated by Ficoll gradient centrifugation, and loaded with the calcium sensitive dye Fluo-4. HIV gp120IIIB induced strong calcium fluxes in the range of 7 nM to 50 pM, and there was a weaker signal at 5 pM.
Experiments corresponding to those with HT-29 cells were done with peripheral blood mononuclear cells. These were isolated from the blood of a healthy, HIV-uninfected person by a Ficoll-Hypaque techique (Histopaque, Sigma), then loaded with Fluo-4 by a technique nearly identical to that used for HT-29 cells, except that Hank's buffer was used rather than Locke's, and the cells were centrifuged (2,000 g for 10 minutes) just before calcium flux measurements to improve adherence. Gp120-induced calcium fluxes were documented with as little as 5 pM gp120IIIB.

Regarding “gp120IIIB: HIV-1 envelope surface protein gp120 of strain IIIB (X4 trophic), from the AIDS Research Reagent Referral Program”, the “calcium signaling in HT-29 cells, in words” value in the assay on HT-29 cells is “induced an immediate calcium signal”. For the same substance, the “minimal concentration causing calcium signaling” value in the assay with HT-29 cells (undifferentiated HT-29 cells, serial dilution) stood at 1 pM. Also, the “effect on acetylated tubulin-staining microtubules” value in assay [1] is “marked loss of microtubules”. In addition, in assay [2] (50 picomolar, 4 seconds after treatment, Fluo-4), the “cells substantially brighter after treatment (increase in intracellular calcium)” value is “Approximately 30%”. The “lowest gp120IIIB concentration giving calcium flux” value in assay [2] (freshly isolated cells) came to 5 pM.
